Patent US20210205271A1 (The Johns Hopkins University, priority 2018, published 2021)
≈ marks a conversion by molar mass, not a printed value. Where “and” joins values, the source holds several entries; their conditions need not be identical. Equal values may be shown once.

Tests used:
[1] = In vitro stability in mouse jejunum (intestinal) homogenate; format: in vitro ADME; conditions: for In vitro stability in mouse (% remaining at 60 min) Intestinal homogenate: 10 μM
Method: (§1) In addition to solubility, all prodrugs were screened for in vitro metabolic stability in mouse jejunum homogenate, liver microsomes and plasma (see Table 3) to characterize their bioconversion to MBZ. The screening paradigm was designed to confirm activation of prodrugs to MBZ following oral administration in these highly metabolic sites. Initial screening was done in mouse jejunum homogenate by incubating the compounds for 60 min. […] Following jejunum stability, the prodrugs were screened in mouse liver microsomes.
(§2) In vitro stability studies were done using mouse jejunum homogenate, mouse liver microsomes or naïve mouse plasma. For mouse jejunum homogenate stability study, washed mouse jejunum was diluted 10-fold in 0.1 M potassium phosphate buffer, and homogenized using probe sonication. Crude homogenate was then aliquoted to 1 mL and the homogenate was spiked with 10 μM of compound. Liver microsome stability assay was performed in 100 mM potassium phosphate buffer, pH 7.4, and reactions were initiated by addition of the liver microsomes to the incubation mixture (compound final concentration was 10 μM; 0.5 mg/mL microsomes). The plasma stability of the prodrugs was determined by spiking (10 μM) of prodrugs in 1 mL of plasma and incubating in an orbital shaker at 37° C. All the stability studies were conducted at predetermined times (0 and 60 min), where 100 μL aliquots of the mixture in triplicate were removed and the reaction was quenched by addition of three times the volume of ice cold acetonitrile spiked with the internal standard (losartan: 0.5 μM). The samples were vortex mixed for 30 sec and centrifuged at 10000×g for 10 min at 4° C. Fifty microliter of the supernatant was diluted with 50 μL water and transferred to a 2504 polypropylene vial sealed with a Teflon cap. Prodrug disappearance was monitored over time using liquid chromatography and tandem mass spectrometry (LC-MS/MS).
(§3) Briefly, prodrugs were analyzed on a Thermo Scientific Accela UPLC system coupled to Accela open autosampler at ambient temperature with an Agilent Eclipse Plus column (100×2.1 mm i.d.) packed with a 1.8 μm C18 stationary phase. The autosampler was temperature controlled and operated at 10° C. The mobile phase used for the chromatographic separation was composed of acetonitrile/water containing 0.1% formic acid and with a flow rate of 0.4 mL/min for 4.5 min using gradient elution. The column effluent was monitored using TSQ Vantage triple-quadrupole mass-spectrometric detector, equipped with an electrospray probe set in the positive ionization mode. Samples were introduced into the ionization source through a heated nebulized probe (350° C.). Disappearance of prodrugs was measured from ratio of peak areas of analyte to IS.

[2] = In vitro stability in mouse plasma; format: in vitro ADME; conditions: for In vitro stability in mouse (% remaining at 60 min) Plasma: 10 μM, 37° C.
Method: as §1, §2, §3

physchem = conditions: for solubility at 24 h: 37 °C, thermodynamic from solid; for fold improvement in solubility over MBZ-C: 24 h, pH 7.4
Method: The aqueous solubility was determined as previously reported using the shake-flask procedure published by Zhou, et al., 2007. The compound was added to PBS buffer (0.01 M) and shaken for 24 h at 37° C. to ensure saturation. After 24 h, the solution was centrifuged (10,000 rpm, 2 min, RT) filtered (0.45 μm PTFE) and the filtrate was diluted appropriately (i.e. neat, 1/10, 1/100, 1/1000) and the concentration of compound was determined using LC/MS.

[3] = Chemical stability in PBS at 37° C. (LC-MS); format: physicochemical; conditions: for chemical stability: aqueous environment / PBS
Method: Prodrugs were also tested for chemical stability in 0.01 M PBS for 60 min at 37° C. by monitoring intact prodrug using LC-MS. […] Thus prodrug 14 was not assessed in assays due to its significant instability in PBS at pH 7.4.
Prodrug chemical stability was measured by the addition of 1 μL, of 10 mM DMSO stock solution to 1 mL of preheated (37° C.) […], resulting in a final concentration of 10 μM. The mixture was vortex mixed for 30 sec, and then incubated at 37° C. At specified time points 100 μL of the mixture was removed and extracted with 300 μL of cold acetonitrile (0° C.) with internal standard. This mixture was further diluted with 400 μL of water and the resulting solution was analyzed by LC-MS.

[4] = In vitro stability in mouse liver microsomes; format: in vitro ADME; conditions: for In vitro stability in mouse (% remaining at 60 min) Liver microsomes: 10 μM, 0.5 mg/mL microsomes
Method: as §1, §2, §3

[5] = male, CD-1, mouse, in vivo, 30 mg/kg
Method: (§4) All pharmacokinetic studies in mice were conducted according to protocols approved by the Animal Care and Use Committee at Johns Hopkins University. Male CD-1 mice between 25 and 30 g were obtained from Harlan, and maintained on a 12-h light-dark cycle with ad libitum access to food and water. […] The mice were sacrificed at specified time points post drug administration. For collection of plasma and brain tissue, animals were euthanized with CO2, and blood samples were collected in heparinized microtubes by cardiac puncture. Tissues were dissected and immediately flash frozen (−80° C.). Blood samples were spun at 2,000×g for 15 min, plasma was removed and stored at −80° C. until LC/MS analysis. Prior to extraction, frozen samples were thawed on ice. The calibration curves were developed using plasma and brain from naïve animals as a matrix. Plasma samples (50 μL), were processed using a single liquid extraction method by addition of 3004 of acetonitrile as with internal standard (losartan: 0.5 μM), followed by vortex mixing for 30 sec and then centrifugation at 10,000×g for 10 min at 4° C. For brain tissue, homogenized samples were vortex mixed and centrifuged as above. A 104 aliquot of supernatant was diluted with 35 µL of acetonitrile and mixed with 50 μL water containing 0.5 μM losartan as internal standard. Extracts were centrifuged at 10,000×g for 10 min at 4° C. Supernatants were transferred to 2504 polypropylene autosampler vials sealed with a Teflon cap. A volume of 34 was injected onto the ultra-performance liquid chromatography (UPLC) instrument for quantitative analysis by LC-MS/MS.
The a priori level of significance for all analyses was defined asp <0.05.

[6] = in vivo, po
Method: Brain concentrations of MBZ were also measured in tandem.
as §4

[7] = cited from earlier work

Which results are given for `COC(=O)Nc1nc2cc(C(=O)c3ccccc3)ccc2n1COC(=O)C(C)(C)C` [Compound 1, (5-Benzoyl-2-((methoxycarbonyl)amino)-1H-benzo[d]imidazol-1-yl)methyl pivalate]?
In vitro stability in mouse (% remaining at 60 min) Intestinal homogenate [1]: 37 ± 2%; In vitro stability in mouse (% remaining at 60 min) Plasma [2]: 4 ± 0%

For `COC(=O)Nc1nc2cc(C(=O)c3ccccc3)ccc2n1COC(=O)CNC(=O)[C@H](CC(C)C)NC(C)=O` [Compound 7, (5-Benzoyl-2-((methoxycarbonyl)amino)-1H-benzo[d]imidazol-1-yl)methyl acetyl-L-leucylglycinate], which solubility at 24 h (physchem; pH 7.4, aqueous buffer) is on record?
The solubility at 24 h was 85.5 µg/mL (≈ 159 µM).

And the “fold improvement in solubility over MBZ-C” value (physchem)?
Its value is “greater than 200 fold”.

What about the “chemical stability” value [3] of the same molecule?
Its value is “sufficiently stable”.

What about the “In vitro stability in mouse (% remaining at 60 min) Intestinal homogenate” value [1] of the same molecule?
Its value is 18 ± 1%.

And the “In vitro stability in mouse (% remaining at 60 min) Liver microsomes” value [4]?
The value was 29 ± 1%.

What about the “In vitro stability in mouse (% remaining at 60 min) Plasma” value [2] of the same molecule?
Its value is 0 ± 0%.

What about the “MBZ plasma concentration at 1 h post oral administration” value [5] of the same molecule?
Its value is 8.72 ± 0.63 nmol/mL.

Which results are given for `COC(=O)Nc1nc2cc(C(=O)c3ccccc3)ccc2n1COC(=O)CCC(=O)O` [Compound 8, 4-((5-Benzoyl-2-((methoxycarbonyl)amino)-1H-benzo[d]imidazol-1-yl)methoxy)-4-oxobutanoic acid]?
solubility at 24 h (physchem; pH 7.4, aqueous buffer): 386 µg/mL (≈ 908 µM); fold improvement in solubility over MBZ-C (physchem): greater than 200 fold; In vitro stability in mouse (% remaining at 60 min) Intestinal homogenate [1]: 30 ± 2%; In vitro stability in mouse (% remaining at 60 min) Liver microsomes [4]: 24 ± 0%; In vitro stability in mouse (% remaining at 60 min) Plasma [2]: 78 ± 1%

Which solubility at 24 h (physchem; pH 7.4, aqueous buffer) does the source give for `COC(=O)Nc1nc2cc(C(=O)c3ccccc3)ccc2n1COC(=O)OC[C@H]1OC(O)[C@H](O)[C@@H](O)[C@@H]1O` (stereo partly drawn) [Compound 9, Methyl (5-benzoyl-1-((((((2R,3S,4S,5R)-3,4,5,6-tetrahydroxytetrahydro-2H-pyran-2-yl)methoxy)carbonyl)oxy)methyl)-1H-benzo[d]imidazol-2-yl)carbamate] here?
The solubility at 24 h was 220 µg/mL (≈ 414 µM).

What about the “fold improvement in solubility over MBZ-C” value (physchem) of the same molecule?
Its value is “greater than 200 fold”.

What about the “In vitro stability in mouse (% remaining at 60 min) Intestinal homogenate” value [1] of the same molecule?
The value was 4 ± 0%.

What about the “In vitro stability in mouse (% remaining at 60 min) Liver microsomes” value [4] of the same molecule?
Its value is 27 ± 0%.

And the “In vitro stability in mouse (% remaining at 60 min) Plasma” value [2]?
Its value is 18 ± 0%.

What about the “metabolized in mouse plasma” value ([2]; 60 min incubation) of the same molecule?
Its value is 82%.

What does the source list for `COC(=O)Nc1nc2cc(C(=O)c3ccccc3)ccc2n1COP(=O)(O)O` [Compound 11, Methyl (5-benzoyl-1-((phosphonooxy)methyl)-1H-benzo[d]imidazol-2-yl)carbamate]?
In vitro stability in mouse (% remaining at 60 min) Intestinal homogenate [1]: 35 ± 4%; In vitro stability in mouse (% remaining at 60 min) Liver microsomes [4]: 100 ± 2%; stability in liver microsomes ([4]; 60 min incubation): stable; In vitro stability in mouse (% remaining at 60 min) Plasma [2]: 62 ± 1%; MBZ plasma concentration at 1 h post oral administration [5]: 8.53 ± 2.33 nmol/mL

What does the source list for `COC(=O)Nc1nc2cc(C(=O)c3ccccc3)ccc2n1COP(=O)([O-])OCOC(=O)OC(C)C.[Na+]` [Compound 12, Methyl (5-benzoyl-1-(((hydroxy(((isopropoxycarbonyl)oxy)methoxy)phosphoryl)oxy)methyl)-1H-benzo[d]imidazol-2-yl)carbamate, sodium salt]?
fold improvement in solubility over MBZ-C (physchem): > 10,000 fold; stability in intestinal tissue homogenate [1]: unstable; In vitro stability in mouse (% remaining at 60 min) Intestinal homogenate [1]: 1 ± 0%; In vitro stability in mouse (% remaining at 60 min) Liver microsomes [4]: 14 ± 0%; In vitro stability in mouse (% remaining at 60 min) Plasma [2]: 73 ± 3%; MBZ plasma concentration at 1 h post oral administration [5]: 10.35 ± 2.57 nmol/mL; fold improvement in plasma MBZ over MBZ-C ([5]; po, 1 h): 3.6 fold; AUC0-t (MBZ, plasma) ([6]; male, CD-1, mouse, 30 mg/kg): 27.9 µM·h; brain AUC0-t ([6]; male, CD-1, mouse, 30 mg/kg): 21.9 µM·h; fold enhanced plasma AUC0-t compared to MBZ-C ([6]; male, CD-1, mouse, 30 mg/kg): 2.2 fold; fold increase in brain AUC0-t over MBZ-C ([6]; male, CD-1, mouse, 30 mg/kg): 1.7 fold; intact prodrug in brain samples ([6]; mouse): no intact prodrug was detected; intact prodrug in plasma samples ([6]; mouse): no intact prodrug was detected; AUC0-t (MBZ, brain) ([6]; mouse, 30 mg/kg): 21.9 ± 2.0 nmol·h/g

With `COC(=O)Nc1nc2cc(C(=O)c3ccccc3)ccc2n1COC(=O)CC[C@H](N)C(=O)O` [Compound 14, (S)-2-Amino-5-((5-benzoyl-2-((methoxycarbonyl)amino)-1H-benzo[d]imidazol-1-yl)methoxy)-5-oxopentanoic acid] as the molecule, how does the solubility at 24 h (physchem; pH 7.4, water) read?
The solubility at 24 h was 451 µg/mL (≈ 992 µM).

And the “chemical stability, % remaining at 60 min” value ([3]; 0.01 M PBS, 37° C., 60 min)?
The value was 0%.

What about the “chemical stability” value [3] of the same molecule?
Its value is “too unstable”.

For `COC(=O)Nc1nc2cc(C(=O)c3ccccc3)ccc2n1C(C)OC(=O)C(C)(C)C` (centres unmarked) [Compound 15, 1-(5-benzoyl-2-((methoxycarbonyl)amino)-1H-benzo[d]imidazol-1-yl)ethyl pivalate], which “In vitro stability in mouse (% remaining at 60 min) Intestinal homogenate” value [1] is on record?
Its value is 60%.

What about the “In vitro stability in mouse (% remaining at 60 min) Plasma” value [2] of the same molecule?
The value was 85%.

With `COC(=O)Nc1nc2cc(C(=O)c3ccccc3)ccc2n1C(OC(=O)C(C)(C)C)C(C)C` (centres unmarked) [Compound 16, 1-(5-benzoyl-2-((methoxycarbonyl)amino)-1H-benzo[d]imidazol-1-yl)-2-methylpropyl pivalate] as the molecule, how does the “In vitro stability in mouse (% remaining at 60 min) Intestinal homogenate” value [1] read?
Its value is 100%.

With `COC(=O)Nc1nc2cc(C(=O)c3ccccc3)ccc2n1COP(=O)([O-])OC(C)OC(=O)OC(C)C.[Na+]` (centres unmarked) [Compound 17, Methyl (5-benzoyl-1-(((hydroxy(((isopropoxycarbonyl)oxy)ethoxy)phosphoryl)oxy)methyl)-111-benzo[d]imidazol-2-yl)carbamate, sodium salt] as the molecule, how does the “In vitro stability in mouse (% remaining at 60 min) Intestinal homogenate” value [1] read?
Its value is 46%.

What about the “In vitro stability in mouse (% remaining at 60 min) Liver microsomes” value [4] of the same molecule?
Its value is 82%.

And the “In vitro stability in mouse (% remaining at 60 min) Plasma” value [2]?
Its value is 89%.

For `COC(=O)Nc1nc2ccc(C(=O)c3ccccc3)cc2[nH]1` [MBZ, Mebendazole], which oral bioavailability ([7]; pilot human study, one subject, intravenous and oral [3H]-mebendazole) is on record?
The oral bioavailability was 17%.

What about the bioavailability ([7]; second human study, five subjects) of the same molecule?
The bioavailability was 22% and 12-35%.
